Measured values reported in ChEMBL document CHEMBL1201862, “PubChem BioAssay data set” (2004).
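Dose response: 5 concentrations. Exposure: 48 h. Format: 96-well plates. Endpoint: linear interpolation; highest concentration if not reached. GI50 marks 50% less growth.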 Activity calls are given as the source filed them. Rule as the data show it: active = GI50 up to about 1.1 µM and inactive = higher.

Experiments:
Assay in all cases: NCI anticancer screen, dose series, 48 h
DLD-1 = tested on: DLD-1
DMS-114 = tested on: DMS-114
DMS-273 = tested on: DMS-273
HOP-18 = tested on: HOP-18
KM-20L2 = tested on: KM-20L2
LXFL 529 = tested on: LXFL 529
M19-MEL = tested on: M19-MEL
RXF 631 = tested on: RXF 631
XF498 = tested on: XF498

Row | SMILES | GI50 (DLD-1) | GI50 (DMS-114) | GI50 (DMS-273) | GI50 (HOP-18) | GI50 (KM-20L2) | GI50 (LXFL 529) | GI50 (M19-MEL) | GI50 (RXF 631) | GI50 (XF498)
1 | CN(O)C(=S)c1ccccc1 | 0.619 µM (active) | 1.18 µM (inactive) | 0.893 µM (active) | > 100 µM (inactive) | 3.24 µM (inactive) | 0.379 µM (active) | 1.19 µM (inactive) | 1.48 µM (inactive) | 
2 | O=CN/C=C/c1ccccc1 | > 100 µM (inactive) |  | > 100 µM (inactive) | > 100 µM (inactive) | > 100 µM (inactive) | > 100 µM (inactive) | > 100 µM (inactive) | > 100 µM (inactive) | 
3 | COc1cccc2c1C1(O)C2CCCC12OCCCO2 (stereo not given) | > 100 µM (inactive) | > 100 µM (inactive) | > 100 µM (inactive) | > 100 µM (inactive) | > 100 µM (inactive) | > 100 µM (inactive) | > 100 µM (inactive) |  | 
4 | O=c1nc(-c2ccccc2)c2c3c(cccn13)CCC2 | > 100 µM (inactive) | > 100 µM (inactive) | > 100 µM (inactive) |  |  | > 100 µM (inactive) | > 100 µM (inactive) |  | > 100 µM (inactive)
5 | Cc1nc(-n2nc(-c3ccccc3)cc2-c2ccccc2)sc1C(/C=C/c1ccc([N+](=O)[O-])cc1)=N/NC(N)=S | 43 µM (inactive) | 16.9 µM (inactive) |  |  | 40.5 µM (inactive) | 24.1 µM (inactive) | 42 µM (inactive) |  | 
6 | Cc1cccc(/C=N/N=C(\N)NO)n1 | 18.7 µM (inactive) | 12.1 µM (inactive) | 35.7 µM (inactive) |  |  | 6.52 µM (inactive) | 68.7 µM (inactive) | > 100 µM (inactive) | 39.4 µM (inactive)
7 | Nc1ccccc1/C(O)=C1/CCOC1=O | > 100 µM (inactive) | > 100 µM (inactive) |  |  |  | > 100 µM (inactive) | > 100 µM (inactive) |  | > 100 µM (inactive)
8 | COC(=O)C1Cc2c(n(C)c3ccccc23)C(CCC(=O)O)N1Cc1ccccc1 (stereo not given) | > 100 µM (inactive) | 26.7 µM (inactive) | 31.6 µM (inactive) |  | 34.9 µM (inactive) | 37 µM (inactive) | 32.1 µM (inactive) | 36.9 µM (inactive) | 28.1 µM (inactive)
9 | O=[N+]([O-])C=C1c2ccccc2-c2ccccc21 | 2.84 µM (inactive) |  |  |  | 19.1 µM (inactive) | 14.9 µM (inactive) |  |  | 
10 | COc1ccc(C(O)C(c2ccc(OCc3ccccc3)cc2)c2ccc(OCc3ccccc3)cc2)cc1 (stereo not given) | > 100 µM (inactive) | > 100 µM (inactive) | > 100 µM (inactive) |  | > 100 µM (inactive) | > 100 µM (inactive) | > 100 µM (inactive) |  | > 100 µM (inactive)
11 | CCC(C)CN1C(=O)NC(C)(Cc2ccccc2)C1=O (stereo not given) | > 100 µM (inactive) | > 100 µM (inactive) | > 100 µM (inactive) | > 100 µM (inactive) | > 100 µM (inactive) | > 100 µM (inactive) | > 100 µM (inactive) |  | > 100 µM (inactive)
12 | O=C(CCCC(=O)Nc1ccc(Cl)cc1Cl)CC(=O)c1ccc2ccccc2c1 | > 100 µM (inactive) | > 100 µM (inactive) | > 100 µM (inactive) | > 100 µM (inactive) | > 100 µM (inactive) | > 100 µM (inactive) | > 100 µM (inactive) | > 100 µM (inactive) | 
13 | Oc1ncnc2c1nnn2CCCn1nnc2c(O)ncnc21 | > 100 µM (inactive) | > 100 µM (inactive) | > 100 µM (inactive) | > 100 µM (inactive) | > 100 µM (inactive) | > 100 µM (inactive) | > 100 µM (inactive) |  | > 100 µM (inactive)
14 | CC1=NN(C(=O)c2ccc([N+](=O)[O-])cc2)C(=O)C1/N=N/c1ccccc1C(=O)O (stereo not given) | > 100 µM (inactive) | > 100 µM (inactive) | > 100 µM (inactive) |  |  | > 100 µM (inactive) | > 100 µM (inactive) |  | 
15 | O=C(CCCCCCCCCCc1ccccc1)C1=C(O)CCCC1=O | 41.1 µM (inactive) | 18.6 µM (inactive) | 20.5 µM (inactive) | 38.6 µM (inactive) | 32.4 µM (inactive) | 32.2 µM (inactive) | 32.7 µM (inactive) |  | 42.5 µM (inactive)
16 | CC1(C)C(=O)C(O)=CC2C1=CCC1C2(C)C(=O)CC2(C)C(C(C)(O)C(=O)CC(O)C(C)(C)O)C(O)CC12C (stereo not given) | 3.19 µM (inactive) | 6.67 µM (inactive) | 2.85 µM (inactive) | 2.51 µM (inactive) | 3.33 µM (inactive) | 3.64 µM (inactive) | 8.85 µM (inactive) |  | 3.28 µM (inactive)
17 | Cc1cc(-c2ccccc2)nc(Nc2cc3ccccc3[nH]2)n1 | > 100 µM (inactive) | > 100 µM (inactive) |  |  | > 100 µM (inactive) | > 100 µM (inactive) | > 100 µM (inactive) |  | > 100 µM (inactive)
18 | N=C(c1ccccc1)N(O)C1CCCCC1 | > 100 µM (inactive) | > 100 µM (inactive) | > 100 µM (inactive) | > 100 µM (inactive) | > 100 µM (inactive) | > 100 µM (inactive) | > 100 µM (inactive) |  | 
19 | CCCCC(=O)OC[n+]1ccc2c(C)c3[nH]c4ccccc4c3c(C)c2c1 | 0.37 µM (active) |  | 0.147 µM (active) | 1.34 µM (inactive) | 0.687 µM (active) | 0.855 µM (active) | 1.07 µM (active) | 1.07 µM (active) | 
20 | CN(/N=C\c1ccnc2ccccc12)c1ccc([N+](=O)[O-])cc1 |  |  | 42.5 µM (inactive) |  | > 100 µM (inactive) | 54.8 µM (inactive) | 65.3 µM (inactive) | > 100 µM (inactive) | > 100 µM (inactive)
21 | Cc1cccc(C(C)(C)C)c1NC(=O)CC1C(=O)Nc2ccccc2[S+]1[O-] (stereo not given) | 44.9 µM (inactive) |  | 38.1 µM (inactive) |  | 57.5 µM (inactive) | 37.8 µM (inactive) |  | 70.3 µM (inactive) | 68.9 µM (inactive)
22 | COc1ccc(Cc2cc3c(cc2OCC(=O)O)OCO3)cc1 | > 100 µM (inactive) | > 100 µM (inactive) |  |  | > 100 µM (inactive) |  | > 100 µM (inactive) | > 100 µM (inactive) | 
23 | CCCCSC(=CC(=O)c1cccc(C(=O)C=C(SCCCC)SCCCC)n1)SCCCC | > 100 µM (inactive) | > 100 µM (inactive) | > 100 µM (inactive) | > 100 µM (inactive) | > 100 µM (inactive) | > 100 µM (inactive) | > 100 µM (inactive) |  | > 100 µM (inactive)
24 | COC(=O)c1c(C(=O)OC)c(-c2ccccc2)n(-c2ccccc2)c(=O)c1-c1ccccc1 | 66.5 µM (inactive) | 74.1 µM (inactive) | 87.7 µM (inactive) |  | > 100 µM (inactive) | > 100 µM (inactive) | 92.3 µM (inactive) |  | 23.1 µM (inactive)
